How the values were obtained:
Type in all cases: in vivo
[1] = tested on: Amaranthus retoflexus (AMARE); assay: Pre-emergence herbicidal glasshouse test on Amaranthus retoflexus; settings: pre-emergence; 1000 g/h; evaluated after 13 days
How it was run: (§1)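 Pre-emergence treatment came one day after sowing, post-emergence treatment after eight days' growth; both used 1000 g/h in a 0.5% Tween 20 acetone/water vehicle. Percent damage, scored 1–5, was read 13 days later.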

[2] = tested on: Alopecurus myosuroides (ALOMY); assay: Post-emergence herbicidal glasshouse test on Alopecurus myosuroides; settings: post-emergence; 1000 g/h; evaluated after 13 days
How it was run: as §1

Solanum nigrum (SOLNI) [3] = assay: Post-emergence herbicidal glasshouse test on Solanum nigrum; settings: post-emergence; 1000 g/h; evaluated after 13 days
How it was run: as §1

[4] = tested on: Echinochloa crus-galli (ECHCG); assay: Post-emergence herbicidal glasshouse test on Echinochloa crus-galli; settings: post-emergence; 1000 g/h; evaluated after 13 days
How it was run: as §1

[5] = tested on: Alopecurus myosuroides (ALOMY); assay: Pre-emergence herbicidal glasshouse test on Alopecurus myosuroides; settings: pre-emergence; 1000 g/h; evaluated after 13 days
How it was run: as §1

Solanum nigrum (SOLNI) [6] = assay: Pre-emergence herbicidal glasshouse test on Solanum nigrum; settings: pre-emergence; 1000 g/h; evaluated after 13 days
How it was run: as §1

[7] = tested on: Echinochloa crus-galli (ECHCG); assay: Pre-emergence herbicidal glasshouse test on Echinochloa crus-galli; settings: pre-emergence; 1000 g/h; evaluated after 13 days
How it was run: as §1

[8] = tested on: Ipomoea hederacea (IPOHE); assay: Post-emergence herbicidal glasshouse test on Ipomoea hederacea; settings: post-emergence; 1000 g/h; evaluated after 13 days
How it was run: as §1

[9] = tested on: Amaranthus retoflexus (AMARE); assay: Post-emergence herbicidal glasshouse test on Amaranthus retoflexus; settings: post-emergence; 1000 g/h; evaluated after 13 days
How it was run: as §1

Setaria faberi (SETFA) [10] = assay: Post-emergence herbicidal glasshouse test on Setaria faberi; settings: post-emergence; 1000 g/h; evaluated after 13 days
How it was run: as §1

[11] = tested on: Ipomoea hederacea (IPOHE); assay: Pre-emergence herbicidal glasshouse test on Ipomoea hederacea; settings: pre-emergence; 1000 g/h; evaluated after 13 days
How it was run: as §1

Setaria faberi (SETFA) [12] = assay: Pre-emergence herbicidal glasshouse test on Setaria faberi; settings: pre-emergence; 1000 g/h; evaluated after 13 days
How it was run: as §1

Row | SMILES | PRE Application AMARE herbicidal damage (five point scale) [1] | POST Application ALOMY herbicidal damage (five point scale) [2] | POST Application SOLNI herbicidal damage (five point scale) (Solanum nigrum (SOLNI) [3]) | POST Application ECHCG herbicidal damage (five point scale) [4] | PRE Application ALOMY herbicidal damage (five point scale) [5] | PRE Application SOLNI herbicidal damage (five point scale) (Solanum nigrum (SOLNI) [6]) | PRE Application ECHCG herbicidal damage (five point scale) [7] | POST Application IPOHE herbicidal damage (five point scale) [8] | POST Application AMARE herbicidal damage (five point scale) [9] | POST Application SETFA herbicidal damage (five point scale) (Setaria faberi (SETFA) [10]) | PRE Application IPOHE herbicidal damage (five point scale) [11] | PRE Application SETFA herbicidal damage (five point scale) (Setaria faberi (SETFA) [12])
1 | Cn1ncc(-n2cccc(-c3ccc(C(F)(F)F)cc3)c2=O)c(O)c1=O [Compound 7.001] | 1 (1=0-19% damage) | 2 (2=20-39% damage) | 4 (4=60-79% damage) | 4 (4=60-79% damage) | 1 (1=0-19% damage) | 1 (1=0-19% damage) | 1 (1=0-19% damage) | 2 (2=20-39% damage) | 3 (3=40-59% damage) | 3 (3=40-59% damage) | 1 (1=0-19% damage) | 1 (1=0-19% damage)
2 | COc1cccc(-c2c(C(F)(F)F)ccn(-c3cnn(C)c(=O)c3O)c2=O)c1 [Compound 7.003] | 5 (5=80-100% damage) | 4 (4=60-79% damage) | 5 (5=80-100% damage) | 5 (5=80-100% damage) | 4 (4=60-79% damage) | 5 (5=80-100% damage) | 4 (4=60-79% damage) | 3 (3=40-59% damage) | 5 (5=80-100% damage) | 3 (3=40-59% damage) | 3 (3=40-59% damage) | 4 (4=60-79% damage)
3 | Cn1ncc(-n2ccc(C(F)(F)F)c(-c3cccc(OC(F)(F)F)c3)c2=O)c(O)c1=O [Compound 7.005] | 5 (5=80-100% damage) | 4 (4=60-79% damage) | 5 (5=80-100% damage) | 5 (5=80-100% damage) | 4 (4=60-79% damage) | 5 (5=80-100% damage) | 5 (5=80-100% damage) | 4 (4=60-79% damage) | 5 (5=80-100% damage) | 4 (4=60-79% damage) | 1 (1=0-19% damage) | 4 (4=60-79% damage)
4 | Cc1ccc(-c2c(C(F)(F)F)ccn(-c3cnn(C)c(=O)c3O)c2=O)cc1 [Compound 7.006] | 5 (5=80-100% damage) | 3 (3=40-59% damage) | 5 (5=80-100% damage) | 5 (5=80-100% damage) | 3 (3=40-59% damage) | 5 (5=80-100% damage) | 5 (5=80-100% damage) | 3 (3=40-59% damage) | 4 (4=60-79% damage) | 3 (3=40-59% damage) | 2 (2=20-39% damage) | 4 (4=60-79% damage)
5 | Cc1ccc(F)cc1-c1c(C(F)(F)F)ccn(-c2cnn(C)c(=O)c2O)c1=O [Compound 7.007] | 5 (5=80-100% damage) | 5 (5=80-100% damage) | 5 (5=80-100% damage) | 5 (5=80-100% damage) | 5 (5=80-100% damage) | 5 (5=80-100% damage) | 5 (5=80-100% damage) | 5 (5=80-100% damage) | 5 (5=80-100% damage) | 5 (5=80-100% damage) | 4 (4=60-79% damage) | 5 (5=80-100% damage)
6 | Cn1ncc(-n2ccc(C(F)(F)F)c(-c3ccc([N+](=O)[O-])cc3)c2=O)c(O)c1=O [Compound 7.009] | 5 (5=80-100% damage) | 5 (5=80-100% damage) | 5 (5=80-100% damage) | 5 (5=80-100% damage) | 5 (5=80-100% damage) | 5 (5=80-100% damage) | 5 (5=80-100% damage) | 5 (5=80-100% damage) | 5 (5=80-100% damage) | 5 (5=80-100% damage) | 4 (4=60-79% damage) | 5 (5=80-100% damage)
7 | Cn1ncc(-n2ccc(C(F)(F)F)c(-c3ccc(C(F)(F)F)nc3)c2=O)c(O)c1=O [Compound 7.010] | 5 (5=80-100% damage) | 5 (5=80-100% damage) | 5 (5=80-100% damage) | 5 (5=80-100% damage) | 5 (5=80-100% damage) | 5 (5=80-100% damage) | 5 (5=80-100% damage) | 5 (5=80-100% damage) | 5 (5=80-100% damage) | 5 (5=80-100% damage) | 5 (5=80-100% damage) | 5 (5=80-100% damage)
8 | C=Cc1cccc(-c2c(C(F)(F)F)ccn(-c3cnn(C)c(=O)c3O)c2=O)c1 [Compound 7.011] | 5 (5=80-100% damage) | 1 (1=0-19% damage) | 5 (5=80-100% damage) | 5 (5=80-100% damage) | 2 (2=20-39% damage) | 5 (5=80-100% damage) | 1 (1=0-19% damage) | 3 (3=40-59% damage) | 5 (5=80-100% damage) | 3 (3=40-59% damage) | 2 (2=20-39% damage) | 2 (2=20-39% damage)
9 | Cn1ncc(-n2ccc(C(F)(F)F)c(-c3cccc(F)c3)c2=O)c(O)c1=O [Compound 7.012] | 5 (5=80-100% damage) | 5 (5=80-100% damage) | 5 (5=80-100% damage) | 5 (5=80-100% damage) | 5 (5=80-100% damage) | 5 (5=80-100% damage) | 5 (5=80-100% damage) | 5 (5=80-100% damage) | 5 (5=80-100% damage) | 5 (5=80-100% damage) | 1 (1=0-19% damage) | 5 (5=80-100% damage)
10 | CC(C)c1cccc(-c2c(C(F)(F)F)ccn(-c3cnn(C)c(=O)c3O)c2=O)c1 [Compound 7.014] | 5 (5=80-100% damage) | 1 (1=0-19% damage) | 5 (5=80-100% damage) | 5 (5=80-100% damage) | 3 (3=40-59% damage) | 5 (5=80-100% damage) | 3 (3=40-59% damage) | 3 (3=40-59% damage) | 5 (5=80-100% damage) | 4 (4=60-79% damage) | 1 (1=0-19% damage) | 4 (4=60-79% damage)
